Measurements taken from patent US20240294543A1, “CYCLOHEPTA-THIENO-DIAZEPINE DERIVATIVES AS GABA A GAMMA1 PAM” (Hoffmann-La Roche Inc., priority 2021, published 2024).
Like-named read-outs stand apart in the source and are kept apart here.

Experiments:
[1] = biological target: human GABAA α2β2γ1 receptor (Homo sapiens (Human), UniProt P47869+Q8N1C3); assay: Radioligand binding assay, competition for [3H]RO7239181, γ1-containing GABAA subtypes
[2] = biological target: human GABAA α1β2γ1 receptor (Homo sapiens (Human), UniProt P14867+Q8N1C3); assay: as above
[3] = biological target: human GABAA α1β3γ2 receptor (Homo sapiens (Human), UniProt P14867+P18507); assay: Radioligand binding assay, competition for [3H]Flumazenil, γ2-containing GABAA subtypes; details: for γ2/γ1 Selectivity Ratio: Ki α1β3γ2 (nM)/Ki α2β2γ1 (nM); for LogSel: Log[Ki α1β3γ2 (nM)/Ki α2β2γ1 (nM)]
In short: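 Competition against [3H]Flumazenil binding in HEK293F cells transiently expressing human α1β3γ2 receptors, pellets resuspended in mannitol buffer pH 7,2-7,4. Incubated to equilibrium 1 hour at 4° C, filtered and washed with ice-cold 50 mM Tris pH 7.5, bound radioactivity by liquid scintillation counting. Ki values are means of two determinations.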

[4] = Ki h-GABAA α2β2γ1, membranes of HEK293F cells, [3H]RO7239181 20-30 nM, Table 1
[5] = Ki h-GABAA α2β2γ1, membranes of HEK293F cells, [3H]RO7239181 20-30 nM, Table 2
[6] = Ki h-GABAA α1β2γ1, membranes of HEK293F cells, [3H]RO7239181 20-30 nM, Table 1
[7] = Ki h-GABAA α2β2γ1, Table 3, reference compounds and examples
[8] = Ki h-GABAA α1β2γ1, Table 3, reference compounds and examples
[9] = HEK293F cells, [3H]Flumazenil 1 nM, Table 1, read-out: Ki h-GABAA α1β3γ2
[10] = read-out: Ki h-GABAA α1β3γ2, Table 3, reference compounds and examples

| SMILES | Ki [1, 4] | Ki [1, 5] | Ki [2, 6] | Ki [3] | γ2/γ1 Selectivity Ratio ([3]; Table 1) | LogSel ([3]; Table 1) | Ki [1, 7] | Ki [2, 8] | γ2/γ1 Selectivity Ratio ([3]; Table 3) | LogSel ([3]; Table 3) | Ki [3, 9] | Ki [3, 10] |
| --- | --- | --- | --- | --- | --- | --- | --- | --- | --- | --- | --- | --- |
| Cc1nnc2n1-c1sc3c(c1C(c1c(F)cccc1F)=N[C@H]2C)CC[C@@H](F)CC3 (single isomer, unassigned) [Example 15] | 0.0428 µM | 0.0428 µM | 0.131 µM | 3.53 µM | 82.5 | 1.92 |  |  |  |  |  |  |
| Cc1nnc2n1-c1sc3c(c1C(c1c(F)cccc1F)=N[C@H]2C)COCCC3 [Example 52, (7S)-9-(2,6-difluorophenyl)-3,7-dimethyl-13-oxa-18-thia-2,4,5,8-tetrazatetracyclo[8.8.0.02,6.011,17]octadeca-1(10),3,5,8,11(17)-pentaene] | 0.0277 µM | 0.0277 µM | 0.0753 µM | 2.78 µM | 100.3 | 2.00 | 0.0277 µM | 0.0753 µM | 100.3 | 2.0 |  |  |
| C[C@@H]1N=C(c2c(F)cccc2F)c2c(sc3c2COCCO3)-n2nc(C(=O)NC[C@](C)(O)C(F)(F)F)nc21 [Example 47, (7S)-9-(2,6-difluorophenyl)-7-methyl-N-[(2S)-3,3,3-trifluoro-2-hydroxy-2-methyl-propyl]-13,16-dioxa-18-thia-2,3,5,8-tetrazatetracyclo[8.8.0.02,6.011,17]octadeca-1(10),3,5,8,11(17)-pentaene-4-carboxamide] | 0.0203 µM | 0.0203 µM | 0.0934 µM |  | 174.6 | 2.24 |  |  |  |  | 3.54 µM |  |
| Cc1nnc2n1-c1sc3c(c1C(c1c(F)cccc1F)=N[C@H]2C)COC[C@H](C)O3 [Example 30, (7S,15S)-9-(2,6-difluorophenyl)-3,7,15-trimethyl-13,16-dioxa-18-thia-2,4,5,8-tetrazatetracyclo[8.8.0.02,6.011,17]octadeca-1(10),3,5,8,11(17)-pentaene] | 0.0369 µM | 0.0369 µM | 0.205 µM | 1.83 µM | 49.6 | 1.70 |  |  |  |  |  |  |
| Cc1nnc2n1-c1sc3c(c1C(c1c(F)cccc1F)=N[C@H]2C)CCC(F)C(F)C3 (single isomer, unassigned) [Example 34] | 0.0317 µM | 0.0317 µM | 0.103 µM | 10.8 µM | 340.3 | 2.53 |  |  |  |  |  |  |
| Cc1nnc2n1-c1sc3c(c1C(c1c(F)cccc1F)=N[C@H]2C)CC[C@H](F)CC3 (single isomer, unassigned) [Example 14] | 0.0384 µM | 0.0384 µM | 0.118 µM | 11 µM | 286.6 | 2.46 |  |  |  |  |  |  |
| Cc1nnc2n1-c1sc3c(c1C(c1c(F)cccc1F)=N[C@H]2C)COCCO3 [Example 21, (7S)-9-(2,6-difluorophenyl)-3,7-dimethyl-13,16-dioxa-18-thia-2,4,5,8-tetrazatetracyclo[8.8.0.02,6.011,17]octadeca-1(10),3,5,8,11(17)-pentaene] | 0.0202 µM | 0.0202 µM | 0.0526 µM | 1.36 µM | 67.2 | 1.83 | 0.0202 µM | 0.0526 µM | 67.2 | 1.8 |  | 1.36 µM |
| Cc1nnc2n1-c1sc3c(c1C(c1c(F)cccc1F)=NC2)CCCCO3 [Example 18, 9-(2,6-difluorophenyl)-3-methyl-16-oxa-18-thia-2,4,5,8-tetrazatetracyclo[8.8.0.02,6.011,17]octadeca-1(10),3,5,8,11(17)-pentaene] | 0.0209 µM | 0.0209 µM | 0.0551 µM | 0.428 µM | 20.5 | 1.31 |  |  |  |  |  |  |
| Cc1nnc2n1-c1sc3c(c1C(c1c(F)cccc1F)=NC2)CCCCC3 [Example 1, 9-(2,6-difluorophenyl)-3-methyl-18-thia-2,4,5,8-tetrazatetracyclo[8.8.0.02,6.011,17]octadeca-1(10),3,5,8,11(17)-pentaene] | 0.0075 µM | 0.0075 µM | 0.02 µM | 0.374 µM | 49.6 | 1.70 | 0.0075 µM | 0.0197 µM | 49.6 | 1.7 |  | 0.374 µM |
| Cc1nnc2n1-c1sc3c(c1C(c1c(F)cccc1F)=N[C@H]2C)OCCCC3 [Example 33, (7S)-9-(2,6-difluorophenyl)-3,7-dimethyl-12-oxa-18-thia-2,4,5,8-tetrazatetracyclo[8.8.0.02,6.011,17]octadeca-1(10),3,5,8,11(17)-pentaene] | 0.0559 µM | 0.0559 µM | 0.38 µM | 3.72 µM | 66.5 | 1.82 |  |  |  |  |  |  |
| Cc1nnc2n1-c1sc3c(c1C(c1c(F)cccc1F)=N[C@H]2C)CCCCC3 [Example 2, (7S)-9-(2,6-difluorophenyl)-3,7-dimethyl-18-thia-2,4,5,8-tetrazatetracyclo[8.8.0.02,6.011,17]octadeca-1(10),3,5,8,11(17)-pentaene] | 0.0074 µM | 0.0074 µM | 0.0192 µM | 0.994 µM | 133.9 | 2.13 |  |  |  |  |  |  |
| Cc1nnc2n1-c1sc3c(c1C(c1c(F)cccc1Cl)=N[C@H]2C)COCCO3 [Example 35, (7S)-9-(2-chloro-6-fluoro-phenyl)-3,7-dimethyl-13,16-dioxa-18-thia-2,4,5,8-tetrazatetracyclo[8.8.0.02,6.011,17]octadeca-1(10),3,5,8,11(17)-pentaene] | 0.0188 µM | 0.0188 µM | 0.0472 µM | 3.94 µM | 209.5 | 2.32 |  |  |  |  |  |  |
| C[C@@H]1N=C(c2c(F)cccc2F)c2c(sc3c2COCCO3)-n2nc(C(=O)N3CC(F)C3)nc21 [Example 24, (3-fluoroazetidin-1-yl)-[(7S)-9-(2,6-difluorophenyl)-7-methyl-13,16-dioxa-18-thia-2,3,5,8-tetrazatetracyclo[8.8.0.02,6.011,17]octadeca-1(10),3,5,8,11(17)-pentaen-4-yl]methanone] | 0.00375 µM | 0.0038 µM | 0.0247 µM |  | 691.7 | 2.84 |  |  |  |  | 2.6 µM |  |
| CCOC1CN(C(=O)c2nc3n(n2)-c2sc4c(c2C(c2c(F)cccc2F)=N[C@H]3C)COCCO4)C1 [Example 31, [(7S)-9-(2,6-Difluorophenyl)-7-methyl-13,16-dioxa-18-thia-2,3,5,8-tetrazatetracyclo[8.8.0.02,6.011,17]octadeca-1(10),3,5,8,11(17)-pentaen-4-yl]-(3-ethoxyazetidin-1-yl)methanone] | 0.0055 µM | 0.0056 µM | 0.0436 µM |  | 818.0 | 2.91 |  |  |  |  | 4.54 µM |  |
| Cc1nnc2n1-c1sc3c(c1C(c1c(F)cccc1F)=N[C@H]2C)CCCC[C@@H]3F (single isomer, unassigned) [Example 12] | 0.0337 µM | 0.0337 µM | 0.0457 µM | 1.01 µM | 29.9 | 1.48 |  |  |  |  |  |  |
| C[C@@H]1N=C(c2c(F)cccc2F)c2c(sc3c2CCCCC3)-n2c(-c3cccnn3)nnc21 [Example 4, (7S)-9-(2,6-difluorophenyl)-7-methyl-3-pyridazin-3-yl-18-thia-2,4,5,8-tetrazatetracyclo[8.8.0.02,6.011,17]octadeca-1(10),3,5,8,11(17)-pentaene] | 0.0478 µM | 0.0478 µM |  | 4.52 µM | 94.6 | 1.98 |  |  |  |  |  |  |
| C[C@@H]1N=C(c2c(F)cccc2F)c2c(sc3c2COCCC3)-n2nc(C(=O)N[C@H]3C[C@H](O)C3)nc21 [Example 63, (7S)-9-(2,6-difluorophenyl)-N-(trans-3-hydroxycyclobutyl)-7-methyl-13-oxa-18-thia-2,3,5,8-tetrazatetracyclo[8.8.0.02,6.011,17]octadeca-1(10),3,5,8,11(17)-pentaene-4-carboxamide] | 0.0459 µM | 0.0459 µM |  |  | 96.5 | 1.98 |  |  |  |  | 4.43 µM |  |
| Cc1nc2n(n1)-c1sc3c(c1C(c1c(F)cccc1F)=N[C@H]2C)CCCCC3 [Example 20, (7S)-9-(2,6-difluorophenyl)-4,7-dimethyl-18-thia-2,3,5,8-tetrazatetracyclo[8.8.0.02,6.011,17]octadeca-1(10),3,5,8,11(17)-pentaene] | 0.0126 µM | 0.0126 µM |  | 1.28 µM | 101.9 | 2.01 |  |  |  |  |  |  |
| Cc1nc2n(n1)-c1sc3c(c1C(c1c(F)cccc1F)=N[C@H]2C)COC[C@H](C)O3 [Example 39, (7S,15S)-9-(2,6-difluorophenyl)-4,7,15-trimethyl-13,16-dioxa-18-thia-2,3,5,8-tetrazatetracyclo[8.8.0.02,6.011,17]octadeca-1(10),3,5,8,11(17)-pentaene] | 0.0578 µM | 0.0578 µM |  | 9.12 µM | 157.6 | 2.20 |  |  |  |  |  |  |
